≈ marks a conversion by molar mass, not a printed value.
Experiments:
[1] = system: T1, human serum albumin (HSA); test: Binding to human serum albumin (fluorescence quenching); conditions: for Ksv (Stern–Volmer quenching constant): pH 7.4
T1 construct: purchased Sigma-Aldrich
Description: Fluorescence quenching induced by studied molecules is described using the well-known Stern-Volmer equation [53]:(1) F0/F=1+Kqτ0[Qu]=1+KSV[Qu] where: F0 and F are HSA fluorescence intensities before and after adding quencher, respectively, Kq is a bimolecular quenching constant, τ0 is life time of the fluorophore in the absence of quencher (the fluorescence life time of a biopolymer is about 5 × 10^−9 s, [Qu] is the quencher concentration, and KSV is the Stern–Volmer quenching constant (KSV = Kq × τ0). The plot of F0/F against [Qu] at 310 K is shown in Figure 3A,B. The Stern–Volmer plots are evidently linear in the 1–16 μM range of concentration for studied compounds.
The value of the binding constant Ka is crucial for understanding the distribution of the drug in plasma. A strong binding produces a decrease in plasma concentrations, […] the distribution and the pharmacological effect of the compound [55]. The apparent binding constant (Kb) and number of binding sites (n) can be calculated using the following equation:(2) log(F0−F/F)=logKb+nlog[Qu]
The interaction forces between a drug and a biomacromolecule may include hydrophobic forces, electrostatic interactions, van der Waals interactions, hydrogen bonds, etc. The thermodynamic parameters of binding reaction are the main evidence for confirming a binding force. In order to elucidate the binding mode, the binding constant for flavonoid–HSA complex formation was evaluated at four different temperatures. The thermodynamic parameters of the binding process can be calculated using the Van’t Hoff equation [60]:(3) lnKb=−ΔH/RT+ΔS/R
The enthalpy change ∆H is calculated on the basis of the slope of lnKb vs. […] plot. The free-energy change ΔG is estimated on the basis of the following equation:(4) ΔG=ΔH−TΔS=−RTlnKb where: ΔH ΔG and ΔS are enthalpy, free enthalpy and entropy change, respectively. R is the gas constant 8.314 J·mol^−1·K^−1.
Analysis of Q 7-MeGlu and Q interaction with human serum albumin (HSA) was performed according to the procedure described by Strugała et al.. The fluorescence measurements were performed on a Cary Eclipse fluorimeter equipped with 1.0 cm quartz cells and a thermostat bath. All quenching experiments were performed at 300, 305, 310 and 315 K for HSA in a phosphate buffer solution of pH 7.4 and final concentration 1.5 × 10^−5 M. The excitation wavelength was set at 280 nm (excitation of the Trp and Tyr), and the emission spectra were read at 285–460 nm. The excitation and emission slits were both set to 5 nm. Our method consisted in tracking the quenching of natural HSA fluorescence caused by Q 7-MeGlu and Q (of final concentrations 1, 2, 4, 6, 8, 10, 12, 14 and 16 µM) added successively. The stock solutions of Q 7-MeGlu and Q were prepared by dissolving in methanol. Control sample contained appropriate amount of methanol. […] The experiment was performed in three independent replicates (n = 3).

[2] = ref [12]; cited from earlier work
[3] = Solubility in water (literature values); assay type: physicochemical; conditions: from cited values

CO[C@H]1[C@H](O)[C@@H](O)[C@H](Oc2cc(O)c3c(=O)c(O)c(-c4ccc(O)c(O)c4)oc3c2)O[C@@H]1CO [Q 7-MeGlu, quercetin 7-O-β-D-(4″-O-methyl)glucopyranoside]
KSV compared with KSV for Q [1]: approximately four times lower
Ksv (Stern–Volmer quenching constant) ([1]; T 300 K): 3.837 ± 0.192 * ·10^4 M^−1
Ksv (Stern–Volmer quenching constant) ([1]; T 305 K): 3.545 ± 0.025 * ·10^4 M^−1
Ksv (Stern–Volmer quenching constant) ([1]; T 310 K): 3.412 ± 0.045 * ·10^4 M^−1
Ksv (Stern–Volmer quenching constant) ([1]; T 315 K): 3.182 ± 0.013 * ·10^4 M^−1

O=c1c(O)c(-c2ccc(O)c(O)c2)oc2cc(O)cc(O)c12 [Quercetin, 3,3′,4′,5,7-pentahydroxyflavone]
solubility in water [2]: 0.512 µg/mL (≈ 1.69 µM)
Ksv (Stern–Volmer quenching constant) ([1]; T 300 K): 17.510 ± 0.152 * ·10^4 M^−1
Ksv (Stern–Volmer quenching constant) ([1]; T 305 K): 16.719 ± 0.135 * ·10^4 M^−1
Ksv (Stern–Volmer quenching constant) ([1]; T 310 K): 15.632 ± 0.109 * ·10^4 M^−1
Ksv (Stern–Volmer quenching constant) ([1]; T 315 K): 13.718 ± 0.058 * ·10^4 M^−1
solubility, fold lower than rutin [3]: more than 240 fold

— article PMC6151435, “Bioactivity In Vitro of Quercetin Glycoside Obtained in Beauveria bassiana Culture and Its Interaction with Liposome Membranes” (Molecules : A Journal of Synthetic Chemistry and Natural …, 2017)
